Where a chain is given by its changes, count along the chain named. Where two headings read alike, the source gives them in different places.
Key:
[1] = biological target: T1, KDM4A-DTD N931D (Homo sapiens, UniProt O75164, N931D); experiment: FP binding, KDM4A-DTD N931D; conditions: pH 7.4, Fig. 2j (± s.d., three replicates), Supplementary Fig. 2f and text
T1 construct: DNA encoding DTDs (KDM4A 895–1011aa, KDM4B 917–1031aa and KDM4C 877–991aa); (His)6-HaloTag (pFN29) or (His)6 (pET28b); made in house; host or cells: Escherichia coli BL21 (DE3)
T1 sequence (O75164 895-1011 N931D): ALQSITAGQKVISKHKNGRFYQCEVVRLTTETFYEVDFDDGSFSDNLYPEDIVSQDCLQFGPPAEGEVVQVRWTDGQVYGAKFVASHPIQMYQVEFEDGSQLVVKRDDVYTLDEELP
From the text: (§1) KDM4 protein sequences used in this study correspond to Uniprot ID: O75164 (human KDM4A, isoform 1), O94953 (human KDM4B, isoform1) and Q9H3R0 (human KDM4C, isoform1). Plasmid encoding KDM4A DTD was kindly provided by R-M Xu (Chinese Academy of Sciences). Complementary DNA encoding human KDM4B-DTD was synthesized (Integrated DNA Technologies). Plasmid containing cDNA of full-length KDM4C (clone ID: HsCD00341594) was obtained from Harvard Plasmid Repository. DNA encoding DTDs (KDM4A 895–1011aa, KDM4B 917–1031aa and KDM4C 877–991aa) were cloned into pFN29 (Promega) with N-terminal (His)6-HaloTag or pET28b with N-terminal (His)6 Tag using In-Fusion HD cloning kit (Clontech). […]
(§2) Peptide sequences are given in Supplementary Table 1. […] Polarization at each concentration was measured as triplicates in 384-well polystyrene black microplates (Thermo Fisher Scientific 262260) by Biotek Synergy H4 multimode plate reader (light source: xenon flash, offset from top: 7 mm, sensitivity: 60%, excitation: 485/20 nm, emission: 528/20 nm, both parallel and perpendicular, normal read speed). Fraction bound (Fb) at each concentration was calculated based on the corresponding polarization values (P): Fbc=(Pc−Pmin)/(Pmax−Pmin), where Pmin is the polarization value of no-protein control and Pmax is the polarization value of the saturation value for that peptide. […]

[2] = biological target: T2, KDM4A-DTD Y973A (Homo sapiens, UniProt O75164, Y973A); experiment: FP binding, KDM4A-DTD Y973A; conditions: pH 7.4, aromatic cage mutant, Fig. 2e (± s.d., three replicates) and text
T2 construct: DNA encoding DTDs (KDM4A 895–1011aa, KDM4B 917–1031aa and KDM4C 877–991aa); (His)6-HaloTag (pFN29) or (His)6 (pET28b); made in house; host or cells: Escherichia coli BL21 (DE3)
T2 sequence (O75164 895-1011 Y973A limits assumed): T1 sequence (O75164 895-1011 N931D) with D37N, Y79A
From the text: as §1, §2

[3] = biological target: T3, KDM4C DTD (human KDM4C double tudor domain, 877–991aa) (Homo sapiens, UniProt Q9H3R0); experiment: fluorescence polarization (FP) binding, KDM4C-DTD wild-type; conditions: Fig. 1c, 3 nM fluorescein-labelled peptide, pH 7.4, ± s.d. from three experimental replicates, read-out: binding constant (FP), KDM4C-DTD
T3 construct: DNA encoding DTDs (KDM4A 895–1011aa, KDM4B 917–1031aa and KDM4C 877–991aa); (His)6-HaloTag (pFN29) or (His)6 (pET28b); made in house; host or cells: Escherichia coli BL21 (DE3)
T3 sequence (Q9H3R0 877-991): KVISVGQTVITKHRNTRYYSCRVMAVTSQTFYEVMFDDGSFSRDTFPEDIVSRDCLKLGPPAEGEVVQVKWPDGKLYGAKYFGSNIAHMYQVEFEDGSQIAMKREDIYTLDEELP
From the text: as §1, §2

[4] = biological target: T4, KDM4A-DTD N931R (Homo sapiens, UniProt O75164, N931R); experiment: FP binding, KDM4A-DTD N931R; conditions: pH 7.4, Fig. 2j (± s.d., three replicates) and text, read-out: binding affinity, KDM4A-DTD N931R
T4 construct: DNA encoding DTDs (KDM4A 895–1011aa, KDM4B 917–1031aa and KDM4C 877–991aa); (His)6-HaloTag (pFN29) or (His)6 (pET28b); made in house; host or cells: Escherichia coli BL21 (DE3)
T4 sequence (O75164 895-1011 N931R limits assumed): T1 sequence (O75164 895-1011 N931D) with D37R
From the text: as §1, §2

[5] = biological target: T5, KDM4A-DTD N940A (Homo sapiens, UniProt O75164, N940A); experiment: FP binding, KDM4A-DTD N940A; conditions: pH 7.4, Fig. 2g, 4g (± s.d., three replicates) and text
T5 construct: DNA encoding DTDs (KDM4A 895–1011aa, KDM4B 917–1031aa and KDM4C 877–991aa); (His)6-HaloTag (pFN29) or (His)6 (pET28b); made in house; host or cells: Escherichia coli BL21 (DE3)
T5 sequence (O75164 895-1011 N940A): T1 sequence (O75164 895-1011 N931D) with D37N, N46A
From the text: as §1, §2

[6] = biological target: T6, KDM4B DTD (human KDM4B double tudor domain, 917–1031aa) (Homo sapiens, UniProt O94953); experiment: fluorescence polarization (FP) binding, KDM4B-DTD wild-type
T6 construct: DNA encoding DTDs (KDM4A 895–1011aa, KDM4B 917–1031aa and KDM4C 877–991aa); (His)6-HaloTag (pFN29) or (His)6 (pET28b); made in house; host or cells: Escherichia coli BL21 (DE3)
T6 sequence (O94953 917-1031): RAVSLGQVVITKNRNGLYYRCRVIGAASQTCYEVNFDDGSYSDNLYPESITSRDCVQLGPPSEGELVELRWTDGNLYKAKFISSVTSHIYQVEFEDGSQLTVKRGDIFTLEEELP
From the text: (§3) KDM4 protein sequences used in this study correspond to Uniprot ID: O75164 (human KDM4A, isoform 1), O94953 (human KDM4B, isoform1) and Q9H3R0 (human KDM4C, isoform1). Plasmid encoding KDM4A DTD was kindly provided by R-M Xu (Chinese Academy of Sciences). Complementary DNA encoding human KDM4B-DTD was synthesized (Integrated DNA Technologies). Plasmid containing cDNA of full-length KDM4C (clone ID: HsCD00341594) was obtained from Harvard Plasmid Repository. DNA encoding DTDs (KDM4A 895–1011aa, KDM4B 917–1031aa and KDM4C 877–991aa) were cloned into pFN29 (Promega) with N-terminal (His)6-HaloTag or pET28b with N-terminal (His)6 Tag using In-Fusion HD cloning kit (Clontech). Plasmids encoding Xenopus laevis core histones were a generous gift of K. Luger (University of Colorado-Boulder). Site-directed mutagenesis was performed with Q5 Site-Directed Mutagenesis Kit (New England Biolabs).
(§4) Peptide sequences are given in Supplementary Table 1. […] A no-protein control with only peptide probe was included. Polarization at each concentration was measured as triplicates in 384-well polystyrene black microplates (Thermo Fisher Scientific 262260) by Biotek Synergy H4 multimode plate reader (light source: xenon flash, offset from top: 7 mm, sensitivity: 60%, excitation: 485/20 nm, emission: 528/20 nm, both parallel and perpendicular, normal read speed). Fraction bound (Fb) at each concentration was calculated based on the corresponding polarization values (P): Fbc=(Pc−Pmin)/(Pmax−Pmin), where Pmin is the polarization value of no-protein control and Pmax is the polarization value of the saturation value for that peptide. Dissociation constants (Kd) were derived by KaleidaGraph, Synergy Software (version 4.1.3) using the following equation: Fb=[protein]/([protein]+Kd).

[7] = biological target: T7, KDM4A DTD (human KDM4A double tudor domain, 895–1011aa) (Homo sapiens, UniProt O75164); experiment: fluorescence polarization (FP) binding, KDM4A-DTD wild-type
T7 construct: DNA encoding DTDs (KDM4A 895–1011aa, KDM4B 917–1031aa and KDM4C 877–991aa); (His)6-HaloTag (pFN29) or (His)6 (pET28b); made in house; host or cells: Escherichia coli BL21 (DE3)
T7 sequence (O75164 895-1011): T1 sequence (O75164 895-1011 N931D) with D37N
From the text: as §3, §4

[8] = biological target: T8, KDM4A-DTD triple mutant N931D/D939R/D945R (DRR) (Homo sapiens, UniProt O75164, D939R/D945R/N931D); experiment: FP binding, KDM4A-DTD DRR mutant
T8 construct: DNA encoding DTDs (KDM4A 895–1011aa, KDM4B 917–1031aa and KDM4C 877–991aa); (His)6-HaloTag (pFN29) or (His)6 (pET28b); made in house; host or cells: Escherichia coli BL21 (DE3)
T8 sequence (O75164 895-1011 N931D/D939R/D945R): T1 sequence (O75164 895-1011 N931D) with D45R, D51R
From the text: as §1, §2

[9] = biological target: T9, KDM4B-DTD Y993A (Homo sapiens, UniProt O94953, Y993A); experiment: FP binding, KDM4B-DTD Y993A; conditions: aromatic cage mutant, Supplementary Fig. 4d, value printed in peer review file
T9 construct: DNA encoding DTDs (KDM4A 895–1011aa, KDM4B 917–1031aa and KDM4C 877–991aa); (His)6-HaloTag (pFN29) or (His)6 (pET28b); made in house; host or cells: Escherichia coli BL21 (DE3)
T9 sequence (O94953 917-1031 Y993A): T6 sequence (O94953 917-1031) with Y77A
From the text: as §1, §2

[10] = biological target: T10, KDM4B N960A (Homo sapiens, UniProt O94953, N960A); experiment: FP binding, KDM4B-DTD N960A; conditions: pH 7.4, Fig. 4g (± s.d., three replicates) and text
T10 construct: DNA encoding DTDs (KDM4A 895–1011aa, KDM4B 917–1031aa and KDM4C 877–991aa); (His)6-HaloTag (pFN29) or (His)6 (pET28b); made in house; host or cells: Escherichia coli BL21 (DE3)
T10 sequence (O94953 917-1031 N960A): T6 sequence (O94953 917-1031) with N44A
From the text: as §1, §2

[11] = biological target: T11, KDM4B S965D (Homo sapiens, UniProt O94953, S965D); experiment: FP binding, KDM4B-DTD S965D; conditions: pH 7.4, Fig. 4i (± s.d., three replicates) and text
T11 construct: DNA encoding DTDs (KDM4A 895–1011aa, KDM4B 917–1031aa and KDM4C 877–991aa); (His)6-HaloTag (pFN29) or (His)6 (pET28b); made in house; host or cells: Escherichia coli BL21 (DE3)
T11 sequence (O94953 917-1031 S965D): T6 sequence (O94953 917-1031) with S49D
From the text: as §1, §2

Kd [1]	Kd [2]	Kd [3]	Kd [4]	Kd [5]	Kd ([6]; Fig. 1c, 3 nM fluorescein-labelled peptide, pH 7.4, ± s.d. from three experimental replicates, read-out: binding constant (FP), KDM4B-DTD)	Kd ([7]; pH 7.4, read-out: Kd, KDM4A-DTD wild-type)	Kd of DRR mutant [8]	Kd [9]	Kd [10]	Kd [11]	Kd ([6]; matrix Fig. 1d, values given in mM, pH 7.4, read-out: binding affinity (Kd), KDM4B DTD)	Kd ([7]; matrix Fig. 1d and Fig. 3c, pH 7.4, read-out: binding affinity (Kd), KDM4A DTD wild-type)	Structure (SMILES)
0.85 µM	285 µM	73.6 ± 3.9 µM	73.9 µM	57.4 µM	0.0103 ± 0.0012 mM	2.2 µM	low micromolar Kd value	327 µM	–	–	–	–	CC(C)C[C@H](NC(=O)[C@H](CCC(N)=O)NC(=O)[C@H](CCCCN)NC(=O)[C@H](CCCNC(=N)N)NC(=O)c1ccc2c(c1)C(=O)OC21c2ccc(O)cc2Oc2cc(O)ccc21)C(=O)N[C@@H](C)C(=O)N[C@H](C(=O)N[C@@H](CCCC[N+](C)(C)C)C(=O)N[C@@H](C)C(=O)N[C@@H](C)C(=O)N[C@@H](CCCNC(=N)N)C(=O)N[C@@H](CCCCN)C(=O)N[C@@H](CO)C(=O)N[C@@H](C)C(=O)N1CCC[C@H]1C(=O)N[C@@H](C)C(=O)N[C@H](C(=O)O)[C@@H](C)O)[C@@H](C)O [H3K23me3]
–	–	–	–	–	–	–	–	–	304 ± 35.8 µM	199 ± 16.1 µM	> 3 mM	2.7 µM	C[C@H](N)C(=O)N[C@@H](CCCNC(=N)N)C(=O)N[C@H](C(=O)N[C@@H](CCCC[N+](C)(C)C)C(=O)N[C@@H](CCC(N)=O)C(=O)N[C@H](C(=O)N[C@@H](C)C(=O)N[C@@H](CCCNC(=N)N)C(=O)N[C@@H](CCCCN)C(=O)N[C@@H](CO)C(=O)N[C@H](C(=O)NCC(=O)NCC(=O)N[C@@H](CCCCNC(=O)c1ccc2c(c1)C(=O)OC21c2ccc(O)cc2Oc2cc(O)ccc21)C(=O)O)[C@@H](C)O)[C@@H](C)O)[C@@H](C)O [H3K4me3]

Reference: publication PMC5114558, “Reader domain specificity and lysine demethylase-4 family function” (Nature Communications, 2016)
